Activity data for one molecule are collected here from ChEMBL document CHEMBL5380832, “Serine-/Cysteine-Based sp2-Iminoglycolipids as Novel TLR4 Agonists: Evaluation of Their Adjuvancy and Immunotherapeutic Properties in a Murine Model of Asthma” (J Med Chem, 2023).

Molecules are shown by their SMILES. The source made the active and inactive calls. The calls are words filed in the database; no cut-off is given here.

One assay relates to Splenocyte. In words: Immunostimulatory activity in wild-type C57BL/6JNarl mouse splenocytes assessed as increase in IFN-gamma expression level at 10 to 25 uM incubated for 48 hrs by ELISA. It is filed as functional, cell-based. The note with it: dose 10-25 µM. (In an ELISA, binding on a coated surface is turned into a signal by an enzyme label.)
`CCCCCCCCCCCNC(=O)[C@H](CO[C@H]1O[C@H](CO)[C@H](O)[C@H](O)[C@H]1O)NC(=O)CCCCCCCCCCC`: the result was Active.

In a further assay the test system is Splenocyte. In words: Immunostimulatory activity in wild-type C57BL/6JNarl mouse splenocytes assessed as increase in IL-6 expression level at 10 to 25 uM incubated for 48 hrs by ELISA. It is filed as functional, cell-based. The note with it: dose 10-25 µM.
Turning to `CCCCCCCCCCCNC(=O)[C@H](CO[C@H]1O[C@H](CO)[C@H](O)[C@H](O)[C@H]1O)NC(=O)CCCCCCCCCCC`, the outcome was Active.

The test system of another assay is Splenocyte. In words: Immunostimulatory activity in MyD88 knockout C57BL/6JNarl mouse splenocytes assessed as increase in IFN-gamma expression level at 10 to 25 uM incubated for 48 hrs by ELISA. It is filed as functional, cell-based. The following applies: dose 10-25 µM.
`CCCCCCCCCCCNC(=O)[C@H](CO[C@H]1O[C@H](CO)[C@H](O)[C@H](O)[C@H]1O)NC(=O)CCCCCCCCCCC`: the outcome was inactive.

Another assay relates to Splenocyte. Description: Immunostimulatory activity in MyD88 knockout C57BL/6JNarl mouse splenocytes assessed as increase in IL-6 expression level at 10 to 25 uM incubated for 48 hrs by ELISA. The format is functional, cell-based. The following applies: dose 10-25 µM.
Regarding `CCCCCCCCCCCNC(=O)[C@H](CO[C@H]1O[C@H](CO)[C@H](O)[C@H](O)[C@H]1O)NC(=O)CCCCCCCCCCC`, the outcome was inactive.

The target in a further assay is T1, Antigen-presenting glycoprotein CD1d1 (Mus musculus) (UniProt P11609).
T1 sequence (whole entry): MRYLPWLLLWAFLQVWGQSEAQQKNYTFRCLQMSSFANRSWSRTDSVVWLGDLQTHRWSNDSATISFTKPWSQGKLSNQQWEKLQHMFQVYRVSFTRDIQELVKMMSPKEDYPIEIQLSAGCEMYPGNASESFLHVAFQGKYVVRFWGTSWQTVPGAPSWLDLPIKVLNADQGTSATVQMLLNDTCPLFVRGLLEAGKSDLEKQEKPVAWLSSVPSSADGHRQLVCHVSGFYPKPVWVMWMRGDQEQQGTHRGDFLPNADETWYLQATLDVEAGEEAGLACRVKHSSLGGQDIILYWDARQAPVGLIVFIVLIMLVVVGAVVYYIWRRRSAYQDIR
Description: Binding affinity to mouse CD1d in alpha-GalCer stimulated mouse iNKT hybridoma DN3A4-1.2 cells expressing co-cultured with mouse A20 cells expressing mouse CD1d assessed as inhibition of alpha-GlaCer activity by measuring IL-2 expression level at 10 to 25 uM incubated for 24 hrs by ELISA. It is filed as cell-based. The note with it: iNKT hybridoma DN3A4-1.2 cell, dose 10-25 µM.
In the case of `CCCCCCCCCCCNC(=O)[C@H](CO[C@H]1O[C@H](CO)[C@H](O)[C@H](O)[C@H]1O)NC(=O)CCCCCCCCCCC`, the outcome was inactive.
